From the NIST ThermoML archive (doi:10.1021/je500067f)

Conditions: 101.33 kPa, Liquid; for viscosity: Capillary tube (Ostwald / Ubbelohde) method; for mass density: Pycnometric method

C[S+](C)[O-] [dimethyl sulfoxide]
Conditions	mass density [kg/m3]	viscosity [mPa·s]
298.15 K	1095.2	2
303.15 K	1090.6	1.8
308.15 K	1085.9	1.61
313.15 K	1081.3	1.44
318.15 K	1075.3	1.33
